Assay results reported in patent US20190127381A1, “SUBSTITUTED FUSED PYRIMIDINONE COMPOUNDS” (TORRENT PHARMACEUTICALS LIMITED, priority 2016, published 2019).

Experiments:
[1] = target: T1, purified recombinant human PI3K enzyme δ (Homo sapiens, UniProt O00329); assay: Inhibition of PI3-Kinase enzymatic activity (HTRF enzyme assay), δ; type: biochemical; conditions: 1 μM compound; PI3K δ 50 ng/well; PIP2 10 μM; ATP 200 μM; read-out: Percentage inhibition of PI3K activity, δ
T1 construct: purchased Invitrogen, USA
Description: (§1) Inhibition of PI3-Kinase enzymatic activity was determined using a homogeneous time-resolved fluorescence (HTRF) kit from Eurofins. 1 μM of Compounds of present invention were premixed with DMSO. The experiment was initiated by mixing 1.0% DMSO as vehicle/compounds with purified recombinant human PI3K enzyme {δ (50 ng/well); γ (100 ng/well)} (Invitrogen, USA) and substrate (PIP2, 10 μM) in the wells and incubation for 15 min at room temperature. There after ATP was added (δ at 200 μM, and γ at 50 μM) in to the wells containing reaction mixture, followed by re-incubation for 30 minutes at room temperature. Reaction was terminated by addition of a stopping solution and was further incubated for 4 hours at room temperature before reading using Envision multimode reader (Perkin Elmer). Percentage inhibition of PI3K activity was calculated by determining ratio of specific europium 665 nm energy transfer signal to reference 615 nm signals.

[2] = target: T2, purified recombinant human PI3K enzyme γ (Homo sapiens, UniProt P48736); assay: Inhibition of PI3-Kinase enzymatic activity (HTRF enzyme assay), γ; type: biochemical; conditions: 1 μM compound; PI3K γ 100 ng/well; PIP2 10 μM; ATP 50 μM; read-out: Percentage inhibition of PI3K activity, γ
T2 construct: purchased Invitrogen, USA
Description: as §1

T1 sequence (O00329 whole entry): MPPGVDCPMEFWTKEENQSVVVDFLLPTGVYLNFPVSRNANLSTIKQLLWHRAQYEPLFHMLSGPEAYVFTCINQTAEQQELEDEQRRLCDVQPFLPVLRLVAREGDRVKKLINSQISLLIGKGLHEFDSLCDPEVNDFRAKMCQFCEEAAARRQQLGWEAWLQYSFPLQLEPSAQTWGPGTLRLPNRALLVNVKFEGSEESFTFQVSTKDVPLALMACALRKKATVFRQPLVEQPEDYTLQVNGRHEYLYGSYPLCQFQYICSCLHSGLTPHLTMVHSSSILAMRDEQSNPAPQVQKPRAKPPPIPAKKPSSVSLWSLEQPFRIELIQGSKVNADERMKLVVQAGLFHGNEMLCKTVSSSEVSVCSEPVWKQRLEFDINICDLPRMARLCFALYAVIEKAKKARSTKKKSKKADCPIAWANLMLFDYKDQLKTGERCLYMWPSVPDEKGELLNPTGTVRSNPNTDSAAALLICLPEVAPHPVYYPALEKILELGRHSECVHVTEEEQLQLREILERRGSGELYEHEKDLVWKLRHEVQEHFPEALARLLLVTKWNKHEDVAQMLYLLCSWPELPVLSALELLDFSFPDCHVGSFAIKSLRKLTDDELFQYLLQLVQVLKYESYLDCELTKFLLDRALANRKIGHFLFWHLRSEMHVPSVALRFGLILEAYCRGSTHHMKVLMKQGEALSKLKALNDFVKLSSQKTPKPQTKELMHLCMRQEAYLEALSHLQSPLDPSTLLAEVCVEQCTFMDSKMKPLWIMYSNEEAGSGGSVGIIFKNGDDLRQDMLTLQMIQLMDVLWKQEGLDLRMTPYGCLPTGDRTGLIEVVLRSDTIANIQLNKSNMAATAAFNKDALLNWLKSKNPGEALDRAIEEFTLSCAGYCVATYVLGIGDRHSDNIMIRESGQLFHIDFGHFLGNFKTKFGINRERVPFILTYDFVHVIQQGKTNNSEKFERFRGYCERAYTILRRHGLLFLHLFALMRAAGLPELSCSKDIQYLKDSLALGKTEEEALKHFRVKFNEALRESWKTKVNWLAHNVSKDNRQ
T1 sequence (P27986 whole entry partner): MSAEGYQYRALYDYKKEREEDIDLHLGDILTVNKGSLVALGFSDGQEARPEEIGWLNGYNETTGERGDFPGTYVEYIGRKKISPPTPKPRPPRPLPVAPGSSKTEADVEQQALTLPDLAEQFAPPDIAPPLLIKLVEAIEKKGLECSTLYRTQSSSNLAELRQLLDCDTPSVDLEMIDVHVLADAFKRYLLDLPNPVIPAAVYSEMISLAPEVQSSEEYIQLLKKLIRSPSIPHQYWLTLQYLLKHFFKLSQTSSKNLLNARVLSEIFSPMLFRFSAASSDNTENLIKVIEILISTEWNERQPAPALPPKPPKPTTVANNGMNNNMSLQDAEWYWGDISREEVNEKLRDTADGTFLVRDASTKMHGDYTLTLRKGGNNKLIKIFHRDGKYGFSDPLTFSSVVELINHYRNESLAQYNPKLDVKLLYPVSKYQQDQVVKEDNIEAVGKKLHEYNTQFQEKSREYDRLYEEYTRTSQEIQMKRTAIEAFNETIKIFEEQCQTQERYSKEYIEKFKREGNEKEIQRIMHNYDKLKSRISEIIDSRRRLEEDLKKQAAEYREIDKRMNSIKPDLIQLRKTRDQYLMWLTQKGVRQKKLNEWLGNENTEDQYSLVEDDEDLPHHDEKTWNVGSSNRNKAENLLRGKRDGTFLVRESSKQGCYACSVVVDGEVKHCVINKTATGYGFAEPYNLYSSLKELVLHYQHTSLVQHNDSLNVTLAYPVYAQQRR
T2 sequence (P48736 whole entry): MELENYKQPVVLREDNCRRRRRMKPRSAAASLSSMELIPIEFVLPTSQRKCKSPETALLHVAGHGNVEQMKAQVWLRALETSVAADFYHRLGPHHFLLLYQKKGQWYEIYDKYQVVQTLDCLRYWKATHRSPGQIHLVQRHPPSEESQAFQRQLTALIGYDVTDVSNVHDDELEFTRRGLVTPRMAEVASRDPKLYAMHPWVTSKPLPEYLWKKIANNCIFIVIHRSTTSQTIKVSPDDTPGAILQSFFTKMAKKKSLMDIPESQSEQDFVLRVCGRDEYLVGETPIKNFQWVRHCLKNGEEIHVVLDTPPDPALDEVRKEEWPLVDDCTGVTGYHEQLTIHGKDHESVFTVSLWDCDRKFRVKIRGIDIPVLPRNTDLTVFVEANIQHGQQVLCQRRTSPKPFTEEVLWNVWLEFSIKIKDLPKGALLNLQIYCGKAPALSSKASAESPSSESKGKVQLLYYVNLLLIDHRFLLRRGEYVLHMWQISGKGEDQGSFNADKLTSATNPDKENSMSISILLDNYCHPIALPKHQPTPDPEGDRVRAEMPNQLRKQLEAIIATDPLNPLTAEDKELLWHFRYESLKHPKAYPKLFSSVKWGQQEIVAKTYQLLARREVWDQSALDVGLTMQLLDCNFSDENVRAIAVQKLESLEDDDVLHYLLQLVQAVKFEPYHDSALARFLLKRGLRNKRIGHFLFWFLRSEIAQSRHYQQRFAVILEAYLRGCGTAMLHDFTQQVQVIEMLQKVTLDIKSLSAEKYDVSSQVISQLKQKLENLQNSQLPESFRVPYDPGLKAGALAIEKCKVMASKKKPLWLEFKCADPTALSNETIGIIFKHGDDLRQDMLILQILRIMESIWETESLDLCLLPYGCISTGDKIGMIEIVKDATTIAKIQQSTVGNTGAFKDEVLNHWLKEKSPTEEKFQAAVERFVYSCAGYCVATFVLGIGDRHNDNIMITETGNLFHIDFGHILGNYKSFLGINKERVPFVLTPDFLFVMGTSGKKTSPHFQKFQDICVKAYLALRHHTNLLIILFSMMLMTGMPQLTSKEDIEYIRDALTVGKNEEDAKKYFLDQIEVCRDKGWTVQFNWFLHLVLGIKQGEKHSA

Structure (SMILES) | inhibition at 1 µM [1] | inhibition at 1 µM [2]
CC1(C)Cc2c(-c3nn(Cc4nc5cccc(C#CC6CC6)c5c(=O)n4C4(c5ccsc5)CC4)c4ncnc(N)c34)ccc(O)c2O1 [compound 76, 2-{[4-amino-3-(7-hydroxy-2,2-dimethyl-2,3-dihydro-1-benzofuran-4-yl)-1H-pyrazolo[3,4-d]pyrimidin-1-yl]methyl}-5-(cyclopropylethynyl)-3-[1-(thiophen-3-yl)cyclopropyl]quinazolin-4(3H)-one] | 80 to 100% | 80 to 100%
CC1(C)Cc2c(-c3nn(Cc4nc5cccc(C#CCNC(=O)C6CC6)c5c(=O)n4-n4cccc4)c4ncnc(N)c34)ccc(O)c2O1 [compound 29, N-{3-[2-{[4-amino-3-(7-hydroxy-2,2-dimethyl-2,3-dihydro-1-benzofuran-4-yl)-1H-pyrazolo[3,4-d]pyrimidin-1-yl]methyl}-4-oxo-3-(1H-pyrrol-1-yl)-3,4-dihydroquinazolin-5-yl]prop-2-yn-1-yl}cyclopropanecarboxamide] | 80 to 100% | 80 to 100%
CC1(C)Cc2c(-c3nn(Cc4nc5cccc(C#CCO)c5c(=O)n4-n4cccc4)c4ncnc(N)c34)ccc(O)c2O1 [compound 19, 2-{[4-amino-3-(7-hydroxy-2,2-dimethyl-2,3-dihydro-1-benzofuran-4-yl)-1H-pyrazolo[3,4-d]pyrimidin-1-yl]methyl}-5-(3-hydroxyprop-1-yn-1-yl)-3-(1H-pyrrol-1-yl)quinazolin-4(3H)-one] | 80 to 100% | 80 to 100%
CC1(C)Cc2c(-c3nn(Cc4nc5cccc(-c6ccsc6)c5c(=O)n4-n4cccc4)c4ncnc(N)c34)ccc(O)c2O1 [compound 14, 2-{[4-amino-3-(7-hydroxy-2,2-dimethyl-2,3-dihydro-1-benzofuran-4-yl)-1H-pyrazolo[3,4-d]pyrimidin-1-yl]methyl}-3-(1H-pyrrol-1-yl)-5-(thiophen-3-yl)quinazolin-4(3H)-one] | 80 to 100% | 80 to 100%
Cc1cc(C)n(-n2c(Cn3nc(-c4ccc(O)c5c4CC(C)(C)O5)c4c(N)ncnc43)nc3cccc(Cl)c3c2=O)n1 [compound 12, 2-{[4-amino-3-(7-hydroxy-2,2-dimethyl-2,3-dihydro-1-benzofuran-4-yl)-1H-pyrazolo[3,4-d]pyrimidin-1-yl]methyl}-5-chloro-3-(3,5-dimethyl-1H-pyrazol-1-yl)quinazolin-4(3H)-one] | 80 to 100% | 80 to 100%
CCn1cc(-c2cccc3nc(Cn4nc(-c5ccc(O)c6c5CC(C)(C)O6)c5c(N)ncnc54)n(-n4c(C)ccc4C)c(=O)c23)cn1 [compound 85, 2-{[4-amino-3-(7-hydroxy-2,2-dimethyl-2,3-dihydro-1-benzofuran-4-yl)-1H-pyrazolo[3,4-d]pyrimidin-1-yl]methyl}-3-(2,5-dimethyl-1H-pyrrol-1-yl)-5-(1-ethyl-1H-pyrazol-4-yl)quinazolin-4(3H)-one] | 80 to 100% | 80 to 100%
CCn1cc(-c2cccc3nc(Cn4nc(-c5ccc(O)c6c5CCC6)c5c(N)ncnc54)n(-n4c(C)ccc4C)c(=O)c23)cn1 [compound 94, 2-{[4-amino-3-(7-hydroxy-2,3-dihydro-1H-inden-4-yl)-1H-pyrazolo[3,4-d]pyrimidin-1-yl]methyl}-3-(2,5-dimethyl-1H-pyrrol-1-yl)-5-(1-ethyl-1H-pyrazol-4-yl)quinazolin-4(3H)-one] | 80 to 100% | 80 to 100%
CCCn1cc(-c2cccc3nc(Cn4nc(-c5ccc(O)c6c5CC(C)(C)O6)c5c(N)ncnc54)n(-n4c(C)ccc4C)c(=O)c23)cn1 [compound 89, 2-{[4-amino-3-(7-hydroxy-2,2-dimethyl-2,3-dihydro-1-benzofuran-4-yl)-1H-pyrazolo[3,4-d]pyrimidin-1-yl]methyl}-3-(2,5-dimethyl-1H-pyrrol-1-yl)-5-(1-propyl-1H-pyrazol-4-yl)quinazolin-4(3H)-one] | 80 to 100% | 80 to 100%
Cc1ccc(C)n1-n1c(Cn2nc(-c3ccc(O)c4c3CCC4)c3c(N)ncnc32)nc2cccc(-c3cnn(C)c3)c2c1=O [compound 93, 2-{[4-amino-3-(7-hydroxy-2,3-dihydro-1H-inden-4-yl)-1H-pyrazolo[3,4-d]pyrimidin-1-yl]methyl}-3-(2,5-dimethyl-1H-pyrrol-1-yl)-5-(1-methyl-1H-pyrazol-4-yl)quinazolin-4(3H)-one] | 80 to 100% | 80 to 100%
Cc1ccc(C)n1-n1c(Cn2nc(-c3ccc(O)c4c3CC(C)(C)O4)c3c(N)ncnc32)nc2cccc(C#CCO)c2c1=O [compound 42, 2-{[4-amino-3-(7-hydroxy-2,2-dimethyl-2,3-dihydro-1-benzofuran-4-yl)-1H-pyrazolo[3,4-d]pyrimidin-1-yl]methyl}-3-(2,5-dimethyl-1H-pyrrol-1-yl)-5-(3-hydroxyprop-1-yn-1-yl)quinazolin-4(3H)-one] | 80 to 100% | 80 to 100%
CC1(C)Cc2c(-c3nn(Cc4nc5cccc(Cl)c5c(=O)n4-n4cccc4)c4ncnc(N)c34)ccc(O)c2O1 [Compound No. 3, 2-{[4-amino-3-(7-hydroxy-2,2-dimethyl-2,3-dihydro-1-benzofuran-4-yl)-1H-pyrazolo[3,4-d]pyrimidin-1-yl]methyl}-5-chloro-3-(1H-pyrrol-1-yl)quinazolin-4(3H)-one] | 80 to 100% | 80 to 100%
COc1ccc(-c2nn(Cc3nc4cccc(C)c4c(=O)n3-n3cccc3)c3ncnc(N)c23)c2c1OC(C)(C)C2 [compound 84, 2-{[4-amino-3-(7-methoxy-2,2-dimethyl-2,3-dihydro-1-benzofuran-4-yl)-1H-pyrazolo[3,4-d]pyrimidin-1-yl]methyl}-5-methyl-3-(1H-pyrrol-1-yl)quinazolin-4(3H)-one] | 80 to 100% | 60 to 80%
CC1(C)Cc2c(-c3nn(Cc4nc5cccc(-c6cccnc6)c5c(=O)n4-n4cccc4)c4ncnc(N)c34)ccc(O)c2O1 [compound 10, 2-{[4-amino-3-(7-hydroxy-2,2-dimethyl-2,3-dihydro-1-benzofuran-4-yl)-1H-pyrazolo[3,4-d]pyrimidin-1-yl]methyl}-5-(pyridin-3-yl)-3-(1H-pyrrol-1-yl)quinazolin-4(3H)-one] | 80 to 100% | 60 to 80%

Next, values leading:

inhibition at 1 µM [1] | inhibition at 1 µM [2] | Structure (SMILES)
80 to 100% | 60 to 80% | Cc1cccc2nc(Cn3nc(-c4ccc(O)c5c4CC(C)(C)O5)c4c(N)ncnc43)n(-n3cccn3)c(=O)c12 [compound 7, 2-{[4-amino-3-(7-hydroxy-2,2-dimethyl-2,3-dihydro-1-benzofuran-4-yl)-1H-pyrazolo[3,4-d]pyrimidin-1-yl]methyl}-5-methyl-3-(1H-pyrazol-1-yl)quinazolin-4(3H)-one]
80 to 100% | 60 to 80% | Cc1ccc(C2(n3c(Cn4nc(-c5ccc(O)c6c5CC(C)(C)O6)c5c(N)ncnc54)nc4cccc(-c5ccnn5C)c4c3=O)CC2)cc1 [compound 40, 2-{[4-amino-3-(7-hydroxy-2,2-dimethyl-2,3-dihydro-1-benzofuran-4-yl)-1H-pyrazolo[3,4-d]pyrimidin-1-yl]methyl}-3-[1-(4-methylphenyl)cyclopropyl]-5-(1-methyl-1H-pyrazol-5-yl)quinazolin-4(3H)-one]
80 to 100% | 60 to 80% | Cc1cccc(C2(n3c(Cn4nc(-c5ccc(O)c6c5CC(C)(C)O6)c5c(N)ncnc54)nc4cccc(-c5ccnn5C)c4c3=O)CC2)c1 [compound 33, 2-{[4-amino-3-(7-hydroxy-2,2-dimethyl-2,3-dihydro-1-benzofuran-4-yl)-1H-pyrazolo[3,4-d]pyrimidin-1-yl]methyl}-3-[1-(3-methylphenyl)cyclopropyl]-5-(1-methyl-1H-pyrazol-5-yl)quinazolin-4(3H)-one]
80 to 100% | 60 to 80% | CC1(C)Cc2c(-c3nn(Cc4nc5cccc(-c6ccncc6)c5c(=O)n4C4(c5ccccc5)CC4)c4ncnc(N)c34)ccc(O)c2O1 [compound 21, 2-{[4-amino-3-(7-hydroxy-2,2-dimethyl-2,3-dihydro-1-benzofuran-4-yl)-1H-pyrazolo[3,4-d]pyrimidin-1-yl]methyl}-3-(1-phenylcyclopropyl)-5-(pyridin-4-yl)quinazolin-4(3H)-one]
80 to 100% | 60 to 80% | CC1(C)Cc2c(-c3nn(Cc4nc5cccc(-c6cccnc6)c5c(=O)n4C4(c5ccccc5)CC4)c4ncnc(N)c34)ccc(O)c2O1 [compound 16, 2-{[4-amino-3-(7-hydroxy-2,2-dimethyl-2,3-dihydro-1-benzofuran-4-yl)-1H-pyrazolo[3,4-d]pyrimidin-1-yl]methyl}-3-(1-phenylcyclopropyl)-5-(pyridin-3-yl)quinazolin-4(3H)-one]
80 to 100% | 60 to 80% | Cc1ccccc1C1(n2c(Cn3nc(-c4ccc(O)c5c4CC(C)(C)O5)c4c(N)ncnc43)nc3cccc(-c4ccnn4C)c3c2=O)CC1 [compound 59, 2-{[4-amino-3-(7-hydroxy-2,2-dimethyl-2,3-dihydro-1-benzofuran-4-yl)-1H-pyrazolo[3,4-d]pyrimidin-1-yl]methyl}-3-[1-(2-methylphenyl)cyclopropyl]-5-(1-methyl-1H-pyrazol-5-yl)quinazolin-4(3H)-one]
